Measured values taken from article PMC12603070, “A high-throughput screening approach to discover potential colorectal cancer chemotherapeutics: repurposing drugs to identify novel disruptors of 14-3-3 proteins” (Cell Death & Disease, 2025).
Where two headings read alike, the source gives them in different places.

How the values were obtained:
[1] = target: T1, 14-3-3ζ:BAD-112-136F interactions (Homo sapiens, UniProt P63104); assay: BRET sensor screen for disruption of 14-3-3ζ-Rluc8:BAD-112-136F-mCitrine in living NIH-3T3 cells; format: cell-based, murine; set-up: inhibition: dose or concentration left out as unconfirmed; BRET reduction on NIH-3T3: unit not given here; conditions: for inhibition at 20 µM / inhibition: NIH3T3, 3 h, read-out: BRET reduction on NIH-3T3
T1 construct: expressed in transfected cells; host or cells: NIH-3T3 fibroblasts, bi-directional pBI-CMV1 plasmid
T1 sequence (P63104 1-245): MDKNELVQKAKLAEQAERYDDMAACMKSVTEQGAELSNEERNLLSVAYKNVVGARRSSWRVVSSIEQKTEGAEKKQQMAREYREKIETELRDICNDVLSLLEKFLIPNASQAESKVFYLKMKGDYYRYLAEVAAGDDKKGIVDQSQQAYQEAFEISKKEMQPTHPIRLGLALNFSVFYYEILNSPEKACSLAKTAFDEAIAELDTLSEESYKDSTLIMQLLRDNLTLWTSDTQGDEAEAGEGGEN
Method in brief: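 NIH-3T3 cells were transfected with the BRET sensor two days beforehand, then replated on poly-L-ornithine-coated plates and grown 24 h at 37 °C. Medium was then replaced with Krebs buffer (pH 7.4). Z′-score was calculated to judge HTS robustness.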

[2] = test system: NIH-3T3 cells; assay: Hoechst/propidium iodide cell death assay in NIH-3T3; format: cell-based; conditions: for cytotoxicity at 20 µM: Mus musculus, NIH3T3, 24 h, read-out: Percentage of cell death % 24h NIH3t3
From the text: (§1) A high-content imaging system (PerkinElmer; Operetta CLS), was used to quantify cell death and apoptosis by calculating the number of propidium iodide-positive cells relative to Hoechst-positive cells, and the number of Annexin V-positive cells relative to Hoechst-positive cells, respectively.

[3] = test system: HT-29 cells; assay: Hoechst/propidium iodide cell death assay in HT-29; format: cell-based, human; conditions: for cytotoxicity at 20 µM: Homo sapiens; for %Cell death HT-29: time not given
From the text: as §1

[4] = test system: Caco-2 cells; format: cell-based; conditions: for Percentage of cell death % 24h CACO-2: 20 µM; for Percentage of cell death % 48h, Caco-2: 20 μM
From the text: as §1

[5] = test system: HT-29 and Caco-2 CRC cells; assay: Cell death in CRC cells, statements covering both HT-29 and Caco-2 (screen at 20 µM, dose-response); format: cell-based, human
Experimental: Cells were plated at a density of 20,000 cells/well into 96-well plates (PerkinElmer; #6055302) and incubated overnight at 37 °C before the addition of the drugs. One hour prior to imaging, Hoechst 33342 (Invitrogen, #H3570) and propidium iodide (Invitrogen; #P3566) were added to the wells to achieve final concentrations of 50 ng/ml and 0.5 μg/ml, respectively. To measure apoptosis, AlexaFluor 488-conjugated Annexin V (ThermoFisher, Massachusetts, USA; #A13201) was also added at a dilution of 1:400 from the commercial stock. A high-content imaging system (PerkinElmer; Operetta CLS), was used to quantify cell death and apoptosis by calculating the number of propidium iodide-positive cells relative to Hoechst-positive cells, and the number of Annexin V-positive cells relative to Hoechst-positive cells, respectively. To assess caspase-dependent apoptosis, cells were pre-treated for 30 min with the caspase inhibitor Z-VAD-FMK (BD Biosciences, New Jersey, USA; #550377; 20 μM) or the negative control Z-FA-FMK (BD Biosciences; #550411; 20 μM) prior to the incubation of drugs.

[6] = NIH-3T3 cells, hits from the primary screen
[7] = HT-29, 24 h, read-out: Percentage of cell death % 24h HT-29
[8] = HT-29, 48 h, read-out: Percentage of cell death % 48h, HT-29
[9] = NIH-3T3 expressing BRET sensor, 20 µM, 3 h
[10] = HT-29, 24 h, 20 µM, 24 h, read-out: Percentage of cell death % 24h HT-29
[11] = HT-29, 48 h, HT-29, 48h, 20 μM, read-out: Percentage of cell death % 48h, HT-29

Cc1ccc(C(=O)Nc2ccc(CN3CCN(C)CC3)c(C(F)(F)F)c2)cc1C#Cc1cnc2cccnn12 [Ponatinib (AP24534), Ponatinib]
inhibition at 20 µM [1]: 44.7% | BRET reduction on NIH-3T3 [1, 6]: 44.6783 | cytotoxicity at 20 µM [2]: 73.5% | Percentage of cell death % 48h, NIH3T3 [2]: 54.2208% | cytotoxicity at 20 µM [3, 7]: 56.7% | cytotoxicity at 20 µM [3, 8]: 83.2% | Percentage of cell death % 24h CACO-2 [4]: 28.4678% | Percentage of cell death % 48h, Caco-2 [4]: 42.5244%

COc1cc(C(=O)O)ccc1NC(=O)[C@@H]1N[C@@H](CC(C)(C)C)[C@](C#N)(c2ccc(Cl)cc2F)[C@H]1c1cccc(Cl)c1F [RG7388]
inhibition [1, 6]: 41.6% | inhibition at 20 µM [1, 9]: 41.6% | cytotoxicity at 20 µM ([2]; 20 µM, 24 h): 35.1% | Percentage of cell death % 48h, NIH3T3 [2]: 20.6788% | cytotoxicity at 20 µM [3, 10]: 9.54% | cytotoxicity at 20 µM [3, 11]: 50% | Percentage of cell death % 24h CACO-2 [4]: 4.882% | Percentage of cell death % 48h, Caco-2 [4]: 4.655%

C[C@H]1O[C@@H](O[C@H]2CC[C@@]3(C)[C@@H](CC[C@]4(C)[C@@H]3C=C[C@]35OC[C@@]6(CCC(C)(C)C[C@H]63)[C@@H](O)C[C@]54C)[C@]2(C)CO)[C@H](O)[C@@H](O[C@@H]2O[C@H](CO)[C@@H](O)[C@H](O)[C@H]2O)[C@H]1O [Saikosaponin A]
inhibition at 20 µM [1]: 53.8% | BRET reduction on NIH-3T3 [1, 6]: 53.7827 | cytotoxicity at 20 µM [2]: 80.7% | Percentage of cell death % 48h, NIH3T3 [2]: 80.787% | %Cell death HT-29 ([3]; HT-29): 87.6% | cytotoxicity at 20 µM [3, 7]: 93.8% | cytotoxicity at 20 µM [3, 8]: 87.6% | %Cell death Caco-2 [4]: 1.2%

COc1ccc2c(O[C@@H]3C[C@H]4C(=O)N[C@]5(C(=O)NS(=O)(=O)C6CC6)C[C@H]5/C=C\CCCCN(C)C(=O)[C@@H]4C3)cc(-c3nc(C(C)C)cs3)nc2c1C [Simeprevir]
inhibition [1, 6]: 42.6% | inhibition at 20 µM [1, 9]: 42.6% | cytotoxicity at 20 µM ([2]; 20 µM, 24 h): 19.3% | Percentage of cell death % 48h, NIH3T3 [2]: 93.5636% | %Cell death HT-29 ([3]; HT-29): 70.9% | cytotoxicity at 20 µM [3, 10]: 38.8% | cytotoxicity at 20 µM [3, 11]: 70.9% | Percentage of cell death % 24h CACO-2 [4]: 3.948% | Percentage of cell death % 48h, Caco-2 [4]: 5.542% | %Cell death Caco-2 ([4]; time not given, text says 48 h): 5.5%

CCCSc1nc(N[C@@H]2C[C@H]2c2ccc(F)c(F)c2)c2nnn([C@@H]3C[C@H](OCCO)[C@@H](O)[C@H]3O)c2n1 [Ticagrelor]
inhibition [1, 6]: 25.6% | inhibition at 20 µM [1, 9]: 25.6% | cytotoxicity at 20 µM ([2]; 20 µM, 24 h): 13.7% | Percentage of cell death % 48h, NIH3T3 [2]: 5.069% | cytotoxicity at 20 µM [3, 10]: 1.2% | cytotoxicity at 20 µM [3, 11]: 3.67% | Percentage of cell death % 24h CACO-2 [4]: 3.005% | Percentage of cell death % 48h, Caco-2 [4]: 3.049%

COc1cc2nccc(Oc3ccc(NC(=O)Nc4cc(C)on4)c(Cl)c3)c2cc1OC [Tivozanib (AV-951), Tivozanib]
inhibition [1, 6]: 26.5% | inhibition at 20 µM [1, 9]: 26.5% | cytotoxicity at 20 µM ([2]; 20 µM, 24 h): 10.8% | Percentage of cell death % 48h, NIH3T3 [2]: 31.2285% | cytotoxicity at 20 µM [3, 10]: 1.65% | cytotoxicity at 20 µM [3, 11]: 23% | Percentage of cell death % 24h CACO-2 [4]: 5.391% | Percentage of cell death % 48h, Caco-2 [4]: 6.001%

Oc1cc(Cl)ccc1Oc1ccc(Cl)cc1Cl [Triclosan]
inhibition at 20 µM [1]: 35.6% | BRET reduction on NIH-3T3 [1, 6]: 35.6098 | cytotoxicity at 20 µM [2]: 58.2% | Percentage of cell death % 48h, NIH3T3 [2]: 20.8092% | cytotoxicity at 20 µM [3, 7]: 20.3% | cytotoxicity at 20 µM [3, 8]: 21.6% | Percentage of cell death % 24h CACO-2 [4]: 23.0449% | Percentage of cell death % 48h, Caco-2 [4]: 14.8508%

CC(C)(C)C#Cc1cc(N(C(=O)[C@H]2CC[C@H](C)CC2)[C@H]2CC[C@H](O)CC2)c(C(=O)O)s1 [VX-222 (VCH-222, Lomibuvir), Lomibuvir]
inhibition [1, 6]: 41.6% | inhibition at 20 µM [1, 9]: 41.6% | cytotoxicity at 20 µM ([2]; 20 µM, 24 h): 5.5% | Percentage of cell death % 48h, NIH3T3 [2]: 38.6762% | %Cell death HT-29 ([3]; HT-29): 78.5% | cytotoxicity at 20 µM [3, 10]: 3.68% | cytotoxicity at 20 µM [3, 11]: 78.5% | Percentage of cell death % 24h CACO-2 [4]: 4.951% | Percentage of cell death % 48h, Caco-2 [4]: 36.3165% | %Cell death Caco-2 ([4]; time not given, text says 48 h): 36.3% | Lowest concentration that significantly induced cell death ([5]; dose-response 2.5-20 µM in HT-29 and Caco-2): 5 µM | Efficacy in the magnitude of cell death attained ([5]; dose-response in CRC cells): inferior to other candidates

Cc1ccc(Sc2ccccc2N2CCNCC2)c(C)c1 [Vortioxetine (Lu AA21004) HBr, Vortioxetine]
inhibition [1, 6]: 35.4% | inhibition at 20 µM [1, 9]: 35.4% | cytotoxicity at 20 µM ([2]; 20 µM, 24 h): 78.5% | Percentage of cell death % 48h, NIH3T3 [2]: 71.7539% | %Cell death HT-29 ([3]; HT-29): 52.1% | cytotoxicity at 20 µM [3, 10]: 7.35% | cytotoxicity at 20 µM [3, 11]: 52.1% | Percentage of cell death % 24h CACO-2 [4]: 33.0298% | Percentage of cell death % 48h, Caco-2 [4]: 76.1709% | %Cell death Caco-2 ([4]; time not given, text says 48 h): 52.1%

Ivermectin
BRET reduction on NIH-3T3 [1, 6]: 41.4556 | BRET reduction on NIH-3T3 [1, 9]: 41.4556 | Percentage of cell death % 24h NIH3t3 ([2]; 20 µM, 24 h): 38.0218% | Percentage of cell death % 48h, NIH3T3 [2]: 70.901% | Percentage of cell death % 24h HT-29 ([3]; 20 µM, 24 h): 6.036% | Percentage of cell death % 48h, HT-29 ([3]; HT-29, 48h, 20 μM): 78.9396% | %Cell death HT-29 ([3]; HT-29): 78.9% | Percentage of cell death % 24h CACO-2 [4]: 4.453% | Percentage of cell death % 48h, Caco-2 [4]: 5.173% | %Cell death Caco-2 ([4]; time not given, text says 48 h): 5.2%
